In patent US12168008B2, “Oxabicycloheptanes for modulation of immune response” (LIXTE BIOTECHNOLOGY, INC., priority 2016, dated 2024):

Test system: CT26 tumor
Test: CT26 syngeneic tumor model: tumor growth and survival
Format: in vivo, mouse
Method: To test the hypothesis that inhibition of PP2A with LB-100 can enhance immune-mediated antitumor responses, rice were implanted with CT26 tumor cells. CT26 is a murine colon adenocarcinoma expressing low level of PD-L1 and is resistant to anti-PD1 therapy. After about 13 days, mice with tumor size between 30-100 mm^3 were randomized into four treatment groups (PBS control, LB-100 only—0.16 mg/kg, anti-PD-1 only—10 mg/kg, or a combination of both). Treatment was given every 2 days for a total of 28 days. Tumor size was assessed every two days (FIGS. 20A-C). Single agent treatment with anti-PD1 was ineffective in reducing tumor burden or increasing survival. LB-100 alone was able to increase median survival from 21 to 33 days (p=0.02). […]
Tumor Inoculation and Animal Studies—CT26 tumor cells (0.5×10^6) were injected subcutaneously in the right side of the abdomen. […] Tumor size were monitored with a digital caliper every 2-3 d and expressed as volume (length×width^2×0.5). […]
LB-100 and aPD-1 combination treatment synergistically elicit rejection of CT26 tumors: To test the hypothesis that PP2A inhibition synergizes with aPD-1 therapy in vivo in aPD-1 refractory tumors, a CT26 tumor was used, which is a murine colorectal carcinoma with high PD-L1 expression but limited response to aPD-1 therapy. […] Tumor growth was assessed every 2 days (FIG. 24A). […]

Q: For CN1CCN(C(=O)C2C(C(=O)O)[C@H]3CC[C@@H]2O3)CC1 (some centres unmarked) [LB-100], which median survival (control 21 days, treatment every 2 days) is on record?
A: Its median survival is 33 days.

Q: And the “tumor growth, single agent” value (mouse, in vivo)?
A: Its value is “did not significantly decrease tumor growth”.
